Measured values: ChEMBL document CHEMBL3137667, “[Drug-induced liver injury; fourteenth updated edition of the bibliographic database of liver injuries and related drugs]” (Gastroenterol Clin Biol, 2004)

Tests used:
[1] = Highest frequency of moderate liver toxicity observed during clinical trials, expressed as a percentage. [column '% BIOL' in source]; conditions: human
[2] = Highest frequency of acute liver toxicity observed during clinical trials, expressed as a percentage. [column '% AIGUE' in source]; conditions: human
[3] = Times to onset, minimal and maximal, observed in the indexed observations. [column 'DELAI' in source]; conditions: human
[4] = human, serum
[5] = human, serum; remark: listed apart in the source
[6] = human
[7] = human; remark: listed apart in the source
[8] = human; remark: listed apart in the source
[9] = human, serum, 4383 h
[10] = human; remark: listed apart in the source
[11] = human; remark: listed apart in the source
[12] = human; remark: listed apart in the source
[13] = human; remark: listed apart in the source
[14] = human; remark: listed apart in the source
[15] = human; remark: listed apart in the source
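Throughout, for Hepatotoxicity (association with vascular disease): count of indexed literature references reporting vascular liver injury in humans, e.g. peliosis hepatitis, hepatic veno-occlusive disease or Budd-Chiari syndrome.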
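Throughout, for Hepatotoxicity (benign tumour): value is a count of indexed literature references citing a benign tumour confirmed by histopathology.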
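Throughout, for Hepatotoxicity (choleostasis): human cholestatic liver injury, shown by histopathology or by peak ALT or AST elevation over alkaline phosphatase ratio below 2, value counts indexed literature reports.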
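Throughout, for Hepatotoxicity (chronic liver disease): chronic liver injury confirmed by histopathology or persistently raised serum aminotransferase activity beyond 6 months, value given as the count of indexed literature references.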
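Throughout, for Hepatotoxicity (cirrhosis): value is a count of indexed literature references reporting cirrhosis confirmed by histopathology.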
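Throughout, for Hepatotoxicity (cytolytic): human cytolytic liver injury, shown by histopathology or by a ratio above 5 of peak ALT or AST elevation to alkaline phosphatase elevation, value counts indexed references.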
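Throughout, for Hepatotoxicity (granulomatous hepatitis): value is a count of indexed literature references reporting granulomatous liver disease confirmed by histopathology.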
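Throughout, for Hepatotoxicity (malignant tumour): malignant tumour confirmed by histopathology, value gives the count of indexed literature references reporting it.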
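Throughout, for Hepatotoxicity (severe hepatitis): human clinical data: severe hepatitis, meaning potentially life-threatening liver failure or clinically observed cases, the value counts how many indexed literature references report it.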
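Throughout, for Hepatotoxicity (steatosis): steatosis confirmed by histopathology, value is the count of indexed references.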

| Structure (SMILES) | Hepatotoxicity (moderate) [1] | Hepatotoxicity (acute) [2] | Hepatotoxicity (time to onset) [3] | Hepatotoxicity (moderate) [4] | Hepatotoxicity (acute) [5] | Hepatotoxicity (cytolytic) [6] | Hepatotoxicity (choleostasis) [7] | Hepatotoxicity (severe hepatitis) [8] | Hepatotoxicity (chronic liver disease) [9] | Hepatotoxicity (cirrhosis) [10] | Hepatotoxicity (granulomatous hepatitis) [11] | Hepatotoxicity (association with vascular disease) [12] | Hepatotoxicity (steatosis) [13] | Hepatotoxicity (malignant tumour) [14] | Hepatotoxicity (benign tumour) [15] | other results |
| --- | --- | --- | --- | --- | --- | --- | --- | --- | --- | --- | --- | --- | --- | --- | --- | --- |
| C=C1c2cccc(O)c2C(=O)C2=C(O)[C@]3(O)C(=O)C(C(N)=O)=C(O)[C@@H](N(C)C)[C@@H]3[C@@H](O)[C@H]12 [METHACYCLINE] | 0% | 0% | 7 months - 1 year | 0 | 1 | 1 | 0 | 0 | 0 | 0 | 0 | 0 | 0 | 0 | 0 |  |
| COc1cccc(OC)c1C(=O)N[C@@H]1C(=O)N2[C@@H]1SC(C)(C)[C@@H]2C(=O)O [METHICILLIN] | 18.7% | 0% | 3 days - 3 weeks | 1 | 0 | 0 | 0 | 0 | 0 | 0 | 0 | 0 | 0 | 0 | 0 |  |
| CC[C@@H](CO)NC(=O)[C@@H]1C=C2c3cccc4[nH]cc(c34)C[C@H]2N(C)C1 [METHYLERGONOVINE] | 0% | 0% | 3 h | 1 | 0 | 0 | 0 | 0 | 0 | 0 | 0 | 0 | 0 | 0 | 0 |  |
| CC[C@@H](CO)NC(=O)[C@@H]1C=C2c3cccc4c3c(cn4C)C[C@H]2N(C)C1 [METHYSERGIDE] | 0% | 0% | 5 years | 1 | 0 | 0 | 0 | 0 | 0 | 0 | 0 | 0 | 0 | 0 | 0 |  |
| Cc1ccc2c(c1)C(N1CCN(C)CC1)=Nc1ccccc1S2 [METIAPINE] | 0% | 0% | 2 weeks - 2 months | 2 | 1 | 1 | 0 | 0 | 0 | 0 | 0 | 0 | 0 | 0 | 0 |  |
| CCN(CC)CCNC(=O)c1cc(Cl)c(N)cc1OC [METOCLOPRAMIDE] | 6% | 0% | 2 days - 4 months | 2 | 1 | 1 | 0 | 0 | 0 | 0 | 0 | 1 | 0 | 0 | 0 |  |
| Cc1ccccc1N1C(=O)c2cc(S(N)(=O)=O)c(Cl)cc2NC1C (stereo not given) [METOLAZONE] | 0% | 0% | 8 days - 3 months | 0 | 2 | 0 | 1 | 1 | 0 | 0 | 1 | 0 | 0 | 0 | 0 |  |
| CS(=O)(=O)c1ccc2c(c1)N(CCCN1CCC(C(N)=O)CC1)c1ccccc1S2 [METOPIMAZINE] | 0% | 0% | 1 month | 0 | 1 | 1 | 1 | 0 | 0 | 0 | 0 | 0 | 0 | 0 | 0 |  |
| CC1(C)S[C@@H]2[C@H](NC(=O)[C@H](NC(=O)N3CCN(S(C)(=O)=O)C3=O)c3ccccc3)C(=O)N2[C@H]1C(=O)O [MEZLOCILLIN] |  |  | 2 weeks - 3 weeks | 6 | 1 |  |  |  | 0 | 0 |  | 0 | 0 | 0 | 0 | Hepatotoxicity (moderate) ([1]; Liver): 25%; Hepatotoxicity (acute) ([2]; Liver): 0%; Hepatotoxicity (cytolytic) ([6]; Liver): 0; Hepatotoxicity (choleostasis) ([7]; Liver): 1; Hepatotoxicity (severe hepatitis) ([8]; Liver): 0; Hepatotoxicity (granulomatous hepatitis) ([11]; Liver): 0 |
| CCC(=O)O[C@@H]1CC(=O)O[C@H](C)C/C=C/C=C/[C@H](O)[C@H](C)C[C@H](CC=O)[C@H](O[C@@H]2O[C@H](C)[C@@H](O[C@H]3C[C@@](C)(O)[C@@H](OC(=O)CC)[C@H](C)O3)[C@H](N(C)C)[C@H]2O)[C@H]1OC [MIDECAMYCIN] | 2.3% | 0% | 24 h | 3 | 1 | 1 | 0 | 1 | 0 | 0 | 0 | 0 | 0 | 0 | 0 |  |
| CC#C[C@]1(O)CC[C@H]2[C@@H]3CCC4=CC(=O)CCC4=C3[C@@H](c3ccc(N(C)C)cc3)C[C@@]21C [MIFEPRISTONE] | 14.3% | 0% | 3 months - 5 months | 2 | 1 | 1 | 0 | 0 | 0 | 0 | 0 | 0 | 0 | 0 | 0 |  |
| CCCCCNCC(N)=O [MILACEMIDE] | 70% | 0% | 3 weeks - 4 weeks | 3 | 1 | 1 | 1 | 0 | 0 | 0 | 0 | 0 | 0 | 0 | 0 |  |
| CCCCCCCCCCCCCCCCOP(=O)([O-])OCC[N+](C)(C)C [MILTEFOSINE] | 55% | 2.2% | 2 weeks | 5 | 3 | 3 | 0 | 0 | 0 | 0 | 0 | 0 | 0 | 0 | 0 |  |
| CN1CCN2c3ncccc3Cc3ccccc3C2C1 (stereo not given) [MIRTAZAPINE] | 1% | 0% | 1 year - 3 years | 2 | 1 | 1 | 0 | 1 | 0 | 0 | 0 | 0 | 1 | 0 | 0 |  |
